# Results reported in US20230055713A1, “COMPOSITION FOR STRENGTHENING SKIN BARRIER OR MOISTURIZING SKIN COMPRISING TILIANIN” (COSMAX NBT, INC., priority 2021, published 2023).
# Key:
# Type in all cases: in vivo
# [1] = system: UVB-irradiated hairless mice; assay: Skin moisture content (Corneometer) on the dorsal skin of UVB-irradiated hairless mice; conditions: T10 group: 10 mg/kg/week oral, 12 weeks
# Experimental: (§1) Five-week-old female hairless mice (SKFI-1) were purchased from Orient Bio (Seongnam, Korea) as experimental animals. Diets of feed and water were freely given, and the animals were bred at the Yonsei Laboratory Animal Research Center (YLARC, Seoul, Korea) under conditions of 25° C. and 50 to 60% humidity for 12 hours. The hairless mice were randomly assigned to the following five groups: (i) a control group, (ii) a UVB-irradiated group (UVB), (iii) a UVB+100 mg/kg/day ARE-administered group (ARE100), (iv) a UVB+250 mg/Kg/day ARE-administered group (ARE250) and (v) UVB+10 mg/kg/week tilianin-administered group (T10). After one week of acclimatization, oral administrations of ARE and tilianin were performed daily for 12 weeks. […]
# (§2) Before anesthetizing the hairless mice, the moisture content and the degree of transepidermal water loss (TEWL) were measured on the dorsal section of the hairless mice. Moisture content was measured using CORNEOMETER® 825 (CK Electronics GmbH) at a pressure of 1.1 to 1.5 N after contacting a probe to the skin surface. The TEWL which represents the amount of the evaporation of transepidermal water in the process of damage and recovery of a skin barrier was measured under conditions of 20 to 25° C. and 40 to 60% humidity using TEWAMETER® TM300 (CK Electronics GmbH) equipped with MULTI PROBE ADAPTER® MPA5 (CK Electronics GmbH).
# [2] = system: UVB-irradiated hairless mice; assay: Transepidermal water loss (TEWL, Tewameter) on the dorsal skin of UVB-irradiated hairless mice; conditions: ARE 100/250 mg/kg/day or tilianin 10 mg/kg/week oral, 12 weeks, vs UVB group
# Experimental: as §1, §2
# [3] = system: hyaluronic acid; assay: Hyaluronic acid concentration in skin homogenate (ELISA) of UVB-irradiated hairless mice; conditions: UVB+T10 group: 10 mg/kg/week oral, 12 weeks
# Experimental: as §1, with “weeks. In this case, the hairless mice belonging to the CON group and the UVB groups were orally administered with saline instead of the samples.” for “weeks.”
# Specifically, the skin tissues of the hairless mice of each group in Example 2-1 were homogenized with NP40 lysis buffer (Elpis Biotech, Daejeon, Korea). The concentration of hyaluronic acid in the homogenate was determined using the hyaluronic acid quantikine ELISA Kit (R&D Systems, Minneapolis, Minn., USA) according to the manufacturer's protocol. Absorbance was read at 450 nm using the VERSAMAX™ variable microplate reader (Molecular Devices, Inc., Sunnyvale, Calif., USA).
# [4] = system: HAS1; assay: HAS1 mRNA expression in skin tissue (RT-PCR) of UVB-irradiated hairless mice; conditions: oral administration, 12 weeks, compared to the UVB-treated group
# Experimental: as §1, with “weeks. In this case, the hairless mice belonging to the CON group and the UVB groups were orally administered with saline instead of the samples. The hairless mice of the remaining groups except the CON group were irradiated with UVB, and the UVB irradiation was carried out using UV crosslinker CL-1000M (UVP) toward the back 3 times per week.” for “weeks.”
# (§3) Specifically, mRNA was isolated from the skin tissues of each group in Example 2-1 using RNAISO™ Plus (Takara). The mRNA was quantified using the NANODROP™ 1000 spectrophotometer (Thermo Fisher Scientific Inc.). […]
# [5] = system: HAS2; assay: HAS2 mRNA expression in skin tissue (RT-PCR) of UVB-irradiated hairless mice; conditions: oral administration, 12 weeks, compared to the UVB-treated group
# Experimental: as §1, with “weeks. In this case, the hairless mice belonging to the CON group and the UVB groups were orally administered with saline instead of the samples. The hairless mice of the remaining groups except the CON group were irradiated with UVB, and the UVB irradiation was carried out using UV crosslinker CL-1000M (UVP) toward the back 3 times per week.” for “weeks.”
# as §3
# [6] = system: HAS3; assay: HAS3 mRNA expression in skin tissue (RT-PCR) of UVB-irradiated hairless mice; conditions: oral administration, 12 weeks, compared to the UVB-treated group
# Experimental: as §1, with “weeks. In this case, the hairless mice belonging to the CON group and the UVB groups were orally administered with saline instead of the samples. The hairless mice of the remaining groups except the CON group were irradiated with UVB, and the UVB irradiation was carried out using UV crosslinker CL-1000M (UVP) toward the back 3 times per week.” for “weeks.”
# as §3
compound,measurement,setting,value
COc1ccc(-c2cc(=O)c3c(O)cc(O[C@@H]4O[C@H](CO)[C@@H](O)[C@H](O)[C@H]4O)cc3o2)cc1 [tilianin],moisture content in the skin,[1],restored to normal levels
same,TEWL (transepidermal water loss),[2],decreased to a significant level
same,"content of hyaluronic acid, increase compared to the UVB-treated group",[3],42.26%
same,mRNA expression level of HAS1,[4],significantly increased
same,mRNA expression level of HAS2,[5],significantly increased
same,mRNA expression level of HAS3,[6],significantly increased
